Reference: ChEMBL document CHEMBL5321293, “Discovery of ERD-3111 as a Potent and Orally Efficacious Estrogen Receptor PROTAC Degrader with Strong Antitumor Activity” (J Med Chem, 2023)

Columns and labels:
[1] = AUC in ICR mouse at 3 mg/kg, po and measured upto 24 hrs by LC-MS/MS analysis; type: ADME, organism-based; set-up: dose 3 mg/kg, time < 24 hrs, route po; settings: in vivo
[2] = biological target: Cytochrome P450 2C9 (Homo sapiens, UniProt P11712); test: Inhibition of CYP2C9 in human liver microsomes preincubated for 5 mins in presence substrate followed by NADPH addition and measured after 10 mins by LC-MS/MS analysis; type: ADME, Microsome
Cytochrome P450 2C9, sequence (P11712 whole entry): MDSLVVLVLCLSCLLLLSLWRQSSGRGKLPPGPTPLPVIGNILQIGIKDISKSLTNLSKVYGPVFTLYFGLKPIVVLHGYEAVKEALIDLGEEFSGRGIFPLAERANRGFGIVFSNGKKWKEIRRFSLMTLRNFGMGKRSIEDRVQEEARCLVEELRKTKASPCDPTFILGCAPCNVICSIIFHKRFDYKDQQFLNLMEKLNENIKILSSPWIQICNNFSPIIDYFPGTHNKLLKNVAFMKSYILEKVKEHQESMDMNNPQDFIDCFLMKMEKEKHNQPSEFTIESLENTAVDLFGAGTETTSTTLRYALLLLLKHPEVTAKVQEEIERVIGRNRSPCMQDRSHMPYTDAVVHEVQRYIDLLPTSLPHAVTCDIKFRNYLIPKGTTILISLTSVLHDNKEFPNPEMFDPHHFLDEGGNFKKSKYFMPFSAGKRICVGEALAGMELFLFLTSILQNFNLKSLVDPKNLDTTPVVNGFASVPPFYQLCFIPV

[3] = Drug concentration in plasma of CB17 SCID mouse xenografted with human MCF7 cells harboring wild type ESR1 at 10 mg/kg, po qd for 3 days and measured after 24 hrs last dose by LC-MS/MS analysis; type: ADME, organism-based; settings: time 3 day
[4] = tested on: MCF7; test: Antitumor activity against human MCF7 cells harboring ESR1 Y537S mutant xenografted in CB17 SCID mouse assessed as tumor growth inhibition at 10 mg/kg, po qd for 4 weeks and measured 30 days post last dose; type: functional; settings: MCF7, 672 h, read-out: TGI
[5] = Clearance in ICR mouse at 1 mg/kg, iv and measured upto 24 hrs by LC-MS/MS analysis; type: ADME, organism-based; settings: in vivo
[6] = Toxicity in CB17 SCID mouse xenografted with human MCF7 cells harboring wild type ESR1 assessed as body weight change at 10 mg/kg,po qd for 5 weeks; type: organism-based; settings: in vivo, 840 h
[7] = Downregulation of ERalpha protein expression in tumor of CB17 SCID mouse xenografted with human MCF7 cells harboring wild type ESR1 at 30 mg/kg, po qd for 3 days and measured after 3 hrs last dose by Western blot analysis relative to control; type: functional; settings: time 3 day
[8] = Drug concentration in plasma of CB17 SCID mouse xenografted with human MCF7 cells harboring wild type ESR1 at 30 mg/kg, po qd for 3 days and measured after 6 hrs last dose by LC-MS/MS analysis; type: ADME, organism-based; settings: time 3 day
[9] = Half life in ICR mouse at 3 mg/kg, po and measured upto 24 hrs by LC-MS/MS analysis; type: ADME, organism-based; settings: in vivo
[10] = biological target: Cytochrome P450 2C19 (Homo sapiens, UniProt P33261); test: Inhibition of CYP2C19 in human liver microsomes preincubated for 5 mins in presence substrate followed by NADPH addition and measured after 10 mins by LC-MS/MS analysis; type: ADME, Microsome
Cytochrome P450 2C19, sequence (P33261 whole entry): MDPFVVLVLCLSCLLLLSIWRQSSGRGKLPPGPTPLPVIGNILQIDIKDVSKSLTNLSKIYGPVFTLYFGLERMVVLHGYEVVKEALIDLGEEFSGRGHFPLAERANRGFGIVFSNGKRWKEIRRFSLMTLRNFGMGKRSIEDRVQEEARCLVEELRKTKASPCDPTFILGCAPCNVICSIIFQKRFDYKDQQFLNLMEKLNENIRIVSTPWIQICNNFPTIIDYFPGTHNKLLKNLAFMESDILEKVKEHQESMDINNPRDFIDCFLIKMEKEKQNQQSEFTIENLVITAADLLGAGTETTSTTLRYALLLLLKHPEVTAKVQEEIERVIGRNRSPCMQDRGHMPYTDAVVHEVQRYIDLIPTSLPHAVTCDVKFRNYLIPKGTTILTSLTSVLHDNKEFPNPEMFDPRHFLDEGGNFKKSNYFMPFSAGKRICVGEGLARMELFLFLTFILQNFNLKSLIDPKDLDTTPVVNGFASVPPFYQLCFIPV

[11] = biological target: T1, Cytochrome P450 2C8 (Homo sapiens, UniProt P10632); test: Inhibition of CYP2C8 in human liver microsomes preincubated for 5 mins in presence substrate followed by NADPH addition and measured after 10 mins by LC-MS/MS analysis; type: ADME, Microsome
T1 sequence (P10632 whole entry): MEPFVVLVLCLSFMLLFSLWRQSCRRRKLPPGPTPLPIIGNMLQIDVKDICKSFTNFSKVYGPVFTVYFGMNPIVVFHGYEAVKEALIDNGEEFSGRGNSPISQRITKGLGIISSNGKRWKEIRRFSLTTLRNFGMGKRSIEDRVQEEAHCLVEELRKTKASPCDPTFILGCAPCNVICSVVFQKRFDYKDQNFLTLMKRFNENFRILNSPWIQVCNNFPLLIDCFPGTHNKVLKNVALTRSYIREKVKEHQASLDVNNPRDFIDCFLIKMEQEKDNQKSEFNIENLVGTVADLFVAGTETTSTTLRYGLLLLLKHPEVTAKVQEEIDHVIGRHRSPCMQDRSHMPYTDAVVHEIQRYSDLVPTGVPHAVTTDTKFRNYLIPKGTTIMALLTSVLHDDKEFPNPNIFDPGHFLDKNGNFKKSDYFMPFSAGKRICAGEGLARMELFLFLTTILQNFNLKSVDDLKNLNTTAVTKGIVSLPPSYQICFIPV

[12] = Drug concentration in tumor of CB17 SCID mouse xenografted with human MCF7 cells harboring ESR1 D538G mutant at 10 mg/kg, po qd for 3 days and measured after 6 hrs last dose by LC-MS/MS analysis; type: ADME, organism-based, Neoplasm; settings: time 3 day, read-out: Ct
[13] = Oral bioavailability in ICR mouse at 3 mg/kg and measured upto 24 hrs by LC-MS/MS analysis; type: ADME, organism-based; settings: in vivo
[14] = Half life in Beagle dog at 1 mg/kg, po and measured upto 24 hrs by LC-MS/MS analysis; type: ADME, organism-based, Canis lupus familiaris; settings: in vivo
[15] = biological target: T2, Protein cereblon/Estrogen receptor (Homo sapiens, UniProt P03372+Q96SW2); test: Protac activity at human ERalpha in human T47D cells assessed as reduction in ERalpha protein level at 0.1 to 100 nM by Western blot analysis; type: cell-based; settings: dose 0.1-100 nM
T2 sequence (P03372 whole entry, looked up): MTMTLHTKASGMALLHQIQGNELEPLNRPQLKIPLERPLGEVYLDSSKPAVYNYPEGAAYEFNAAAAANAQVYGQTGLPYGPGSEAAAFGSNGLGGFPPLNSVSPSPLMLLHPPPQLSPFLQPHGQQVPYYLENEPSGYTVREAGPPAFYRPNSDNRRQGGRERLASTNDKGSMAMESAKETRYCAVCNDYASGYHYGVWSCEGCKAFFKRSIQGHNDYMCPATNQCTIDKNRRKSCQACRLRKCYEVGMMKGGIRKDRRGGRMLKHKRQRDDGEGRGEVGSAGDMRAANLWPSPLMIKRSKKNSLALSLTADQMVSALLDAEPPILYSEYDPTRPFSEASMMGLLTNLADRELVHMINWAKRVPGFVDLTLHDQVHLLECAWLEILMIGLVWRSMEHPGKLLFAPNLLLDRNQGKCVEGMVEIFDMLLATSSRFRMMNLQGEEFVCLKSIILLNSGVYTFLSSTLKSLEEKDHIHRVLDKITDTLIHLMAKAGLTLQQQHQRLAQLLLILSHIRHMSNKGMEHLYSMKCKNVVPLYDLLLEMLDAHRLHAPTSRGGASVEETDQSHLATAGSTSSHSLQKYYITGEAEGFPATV
T2 sequence (Q96SW2 whole entry, looked up): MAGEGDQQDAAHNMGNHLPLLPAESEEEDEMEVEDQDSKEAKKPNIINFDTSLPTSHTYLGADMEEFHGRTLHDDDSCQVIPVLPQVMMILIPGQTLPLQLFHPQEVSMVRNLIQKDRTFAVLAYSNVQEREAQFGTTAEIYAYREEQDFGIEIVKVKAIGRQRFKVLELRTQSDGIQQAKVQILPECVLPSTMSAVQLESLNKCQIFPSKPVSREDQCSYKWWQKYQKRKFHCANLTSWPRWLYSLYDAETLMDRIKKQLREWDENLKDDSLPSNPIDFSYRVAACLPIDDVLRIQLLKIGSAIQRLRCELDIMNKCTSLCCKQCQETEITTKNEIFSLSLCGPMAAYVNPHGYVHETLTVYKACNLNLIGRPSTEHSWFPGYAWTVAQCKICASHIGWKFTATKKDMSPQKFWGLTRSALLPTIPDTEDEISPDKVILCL

[16] = in vivo; settings: Sprague-Dawley, rat, po, 3 mg/kg
[17] = tested on: MCF7; test: Antitumor activity against human MCF7 cells harboring wild type ESR1 xenografted in CB17 SCID mouse assessed as tumor growth inhibition at 30 mg/kg, po qd for 5 weeks; type: functional; settings: MCF7, 840 h, read-out: TGI
[18] = Drug concentration in tumor of CB17 SCID mouse xenografted with human MCF7 cells harboring wild type ESR1 at 30 mg/kg, po qd for 3 days and measured after 24 hrs last dose by LC-MS/MS analysis; type: ADME, organism-based, Neoplasm; settings: time 3 day, read-out: Ct
[19] = Volume of distribution at steady state in Beagle dog at 0.5 mg/kg, iv and measured upto 24 hrs by LC-MS/MS analysis; type: ADME, organism-based, Canis lupus familiaris; settings: in vivo, read-out: Vdss
[20] = Drug concentration in tumor of CB17 SCID mouse xenografted with human MCF7 cells harboring wild type ESR1 at 30 mg/kg, po qd for 3 days and measured after 6 hrs last dose by LC-MS/MS analysis; type: ADME, organism-based, Neoplasm; settings: time 3 day, read-out: Ct
[21] = Downregulation of ERalpha protein expression in tumor of CB17 SCID mouse xenografted with human MCF7 cells harboring wild type ESR1 at 30 mg/kg, po qd for 3 days and measured after 6 hrs last dose by Western blot analysis relative to control; type: functional; settings: time 3 day
[22] = AUC in Beagle dog at 1 mg/kg, po and measured upto 24 hrs by LC-MS/MS analysis; type: ADME, organism-based, Canis lupus familiaris; set-up: dose 1 mg/kg, time < 24 hrs, route po; settings: in vivo
[23] = tested on: MCF7; test: Antitumor activity against human MCF7 cells harboring ESR1 D538G mutant xenografted in CB17 SCID mouse assessed as tumor growth inhibition at 30 mg/kg, po qd for 4 weeks; type: functional; settings: MCF7, 672 h, read-out: TGI
[24] = tested on: MCF7; test: Antitumor activity against human MCF7 cells harboring ESR1 D538G mutant xenografted in CB17 SCID mouse assessed as tumor growth inhibition at 10 mg/kg, po qd for 4 weeks; type: functional; settings: MCF7, 672 h, read-out: TGI
[25] = AUC in Sprague-Dawley rat at 3 mg/kg, po and measured upto 24 hrs by LC-MS/MS analysis; type: ADME, organism-based; set-up: dose 3 mg/kg, time < 24 hrs, route po; settings: Sprague-Dawley, in vivo
[26] = Downregulation of ERalpha protein expression in tumor of CB17 SCID mouse xenografted with human MCF7 cells harboring ESR1 Y537S mutant at 30 mg/kg, po qd for 3 days and measured after 6 hrs last dose by Western blot analysis relative to control; type: functional; settings: time 3 day
[27] = Drug concentration in tumor of CB17 SCID mouse xenografted with human MCF7 cells harboring ESR1 Y537S mutant at 10 mg/kg, po qd for 3 days and measured after 6 hrs last dose by LC-MS/MS analysis; type: ADME, organism-based, Neoplasm; settings: time 3 day, read-out: Ct
[28] = biological target: T2, Protein cereblon/Estrogen receptor; test: Protac activity at human ERalpha in human MCF7 cells assessed as induction of ERalpha degradation by measuring maximum efficacy at 1 uM incubated for 12 hrs by ICW blot assay relative to control; type: cell-based

AUC at 24 h [1]: 3370 ng·h/mL
IC50 [2]: > 10 µM
concentration at 72 h [3]: 18 ng/mL
clearance [5]: 5.7 mL/min/kg
concentration at 72 h [8]: 1440 ng/mL
half-life [9]: 6.4 h
IC50 [10]: > 10 µM
IC50 [11]: > 10 µM
concentration at 72 h [12]: 1050 ng/mL
bioavailability [13]: 42%
half-life [14]: 7.9 h
Activity [15]: Dose-Dependent Effect
Cmax at 24 h [16]: 141 ng/mL
concentration at 72 h [18]: 413 ng/mL
Vd [19]: 5.2 L/kg
concentration at 72 h [20]: 1470 ng/mL
AUC at 24 h [22]: 937 ng·h/mL
AUC at 24 h [25]: 1320 ng·h/mL
concentration at 72 h [27]: 692 ng/mL
Emax [28]: 91%
Structure (SMILES): C[C@@H]1Cc2c(ccc3[nH]ncc23)[C@@H](c2c(F)cc(N3CCC4(CCN(C(=O)CN5Cc6cc7c(cc6C5)C(=O)N(C5CCC(=O)NC5=O)C7=O)CC4)CC3)cc2F)N1CC(F)F (stereo partly drawn)
inhibition in vivo at 10 mg/kg [4]: 99%
Activity [6]: Non-Toxic
Activity [7]: 82%
inhibition in vivo at 30 mg/kg [17]: 42%
Activity [21]: 66%
inhibition in vivo at 30 mg/kg [23]: 51%
inhibition in vivo at 10 mg/kg [24]: 38%
Activity [26]: 85%
